# Calls of active or inactive are those of the source. The calls are words filed in the database; no cut-off is given here.
# Experiments:
# Acetyl-CoA carboxylase 2 = Acetyl-CoA carboxylase 2 (Homo sapiens, UniProt O00763); experiment: Inhibition of human ACC2 using acetyl-coA as substrate incubated for 60 mins prior to substrate addition measured after 20 mins by malachite green assay
# Acetyl-CoA carboxylase 1 [1] = target: Acetyl-CoA carboxylase 1 (Homo sapiens, UniProt Q13085); experiment: Inhibition of human ACC1 using acetyl-coA as substrate incubated for 60 mins prior to substrate addition measured after 20 mins by malachite green assay
# [2] = Lipophilicity, log D of the compound by HPLC analysis at pH 7; format: physicochemical; conditions: buffer
# [3] = Clearance in human liver microsomes assessed per mg of protein; format: ADME, Microsome; conditions: read-out: CLH
# Rattus norvegicus [4] = experiment: Antidyslipidemic activity in Wistar fatty rat assessed as reduction in respiratory quoteint at 1 mg/kg, po after 3 hrs; format: functional, organism-based; parameters: dose 1 mg/kg
# Rattus norvegicus [5] = experiment: Antidyslipidemic activity in po dosed Wistar fatty rat assessed as reduction in respiratory quoteint after 3 hrs; format: functional, organism-based
# [6] = Inhibition of rat ACC2
# Acetyl-CoA carboxylase 1 [7] = target: Acetyl-CoA carboxylase 1 (Rattus norvegicus, UniProt P11497); experiment: Inhibition of rat ACC1
# Sequence of Acetyl-CoA carboxylase 2 (O00763 whole entry): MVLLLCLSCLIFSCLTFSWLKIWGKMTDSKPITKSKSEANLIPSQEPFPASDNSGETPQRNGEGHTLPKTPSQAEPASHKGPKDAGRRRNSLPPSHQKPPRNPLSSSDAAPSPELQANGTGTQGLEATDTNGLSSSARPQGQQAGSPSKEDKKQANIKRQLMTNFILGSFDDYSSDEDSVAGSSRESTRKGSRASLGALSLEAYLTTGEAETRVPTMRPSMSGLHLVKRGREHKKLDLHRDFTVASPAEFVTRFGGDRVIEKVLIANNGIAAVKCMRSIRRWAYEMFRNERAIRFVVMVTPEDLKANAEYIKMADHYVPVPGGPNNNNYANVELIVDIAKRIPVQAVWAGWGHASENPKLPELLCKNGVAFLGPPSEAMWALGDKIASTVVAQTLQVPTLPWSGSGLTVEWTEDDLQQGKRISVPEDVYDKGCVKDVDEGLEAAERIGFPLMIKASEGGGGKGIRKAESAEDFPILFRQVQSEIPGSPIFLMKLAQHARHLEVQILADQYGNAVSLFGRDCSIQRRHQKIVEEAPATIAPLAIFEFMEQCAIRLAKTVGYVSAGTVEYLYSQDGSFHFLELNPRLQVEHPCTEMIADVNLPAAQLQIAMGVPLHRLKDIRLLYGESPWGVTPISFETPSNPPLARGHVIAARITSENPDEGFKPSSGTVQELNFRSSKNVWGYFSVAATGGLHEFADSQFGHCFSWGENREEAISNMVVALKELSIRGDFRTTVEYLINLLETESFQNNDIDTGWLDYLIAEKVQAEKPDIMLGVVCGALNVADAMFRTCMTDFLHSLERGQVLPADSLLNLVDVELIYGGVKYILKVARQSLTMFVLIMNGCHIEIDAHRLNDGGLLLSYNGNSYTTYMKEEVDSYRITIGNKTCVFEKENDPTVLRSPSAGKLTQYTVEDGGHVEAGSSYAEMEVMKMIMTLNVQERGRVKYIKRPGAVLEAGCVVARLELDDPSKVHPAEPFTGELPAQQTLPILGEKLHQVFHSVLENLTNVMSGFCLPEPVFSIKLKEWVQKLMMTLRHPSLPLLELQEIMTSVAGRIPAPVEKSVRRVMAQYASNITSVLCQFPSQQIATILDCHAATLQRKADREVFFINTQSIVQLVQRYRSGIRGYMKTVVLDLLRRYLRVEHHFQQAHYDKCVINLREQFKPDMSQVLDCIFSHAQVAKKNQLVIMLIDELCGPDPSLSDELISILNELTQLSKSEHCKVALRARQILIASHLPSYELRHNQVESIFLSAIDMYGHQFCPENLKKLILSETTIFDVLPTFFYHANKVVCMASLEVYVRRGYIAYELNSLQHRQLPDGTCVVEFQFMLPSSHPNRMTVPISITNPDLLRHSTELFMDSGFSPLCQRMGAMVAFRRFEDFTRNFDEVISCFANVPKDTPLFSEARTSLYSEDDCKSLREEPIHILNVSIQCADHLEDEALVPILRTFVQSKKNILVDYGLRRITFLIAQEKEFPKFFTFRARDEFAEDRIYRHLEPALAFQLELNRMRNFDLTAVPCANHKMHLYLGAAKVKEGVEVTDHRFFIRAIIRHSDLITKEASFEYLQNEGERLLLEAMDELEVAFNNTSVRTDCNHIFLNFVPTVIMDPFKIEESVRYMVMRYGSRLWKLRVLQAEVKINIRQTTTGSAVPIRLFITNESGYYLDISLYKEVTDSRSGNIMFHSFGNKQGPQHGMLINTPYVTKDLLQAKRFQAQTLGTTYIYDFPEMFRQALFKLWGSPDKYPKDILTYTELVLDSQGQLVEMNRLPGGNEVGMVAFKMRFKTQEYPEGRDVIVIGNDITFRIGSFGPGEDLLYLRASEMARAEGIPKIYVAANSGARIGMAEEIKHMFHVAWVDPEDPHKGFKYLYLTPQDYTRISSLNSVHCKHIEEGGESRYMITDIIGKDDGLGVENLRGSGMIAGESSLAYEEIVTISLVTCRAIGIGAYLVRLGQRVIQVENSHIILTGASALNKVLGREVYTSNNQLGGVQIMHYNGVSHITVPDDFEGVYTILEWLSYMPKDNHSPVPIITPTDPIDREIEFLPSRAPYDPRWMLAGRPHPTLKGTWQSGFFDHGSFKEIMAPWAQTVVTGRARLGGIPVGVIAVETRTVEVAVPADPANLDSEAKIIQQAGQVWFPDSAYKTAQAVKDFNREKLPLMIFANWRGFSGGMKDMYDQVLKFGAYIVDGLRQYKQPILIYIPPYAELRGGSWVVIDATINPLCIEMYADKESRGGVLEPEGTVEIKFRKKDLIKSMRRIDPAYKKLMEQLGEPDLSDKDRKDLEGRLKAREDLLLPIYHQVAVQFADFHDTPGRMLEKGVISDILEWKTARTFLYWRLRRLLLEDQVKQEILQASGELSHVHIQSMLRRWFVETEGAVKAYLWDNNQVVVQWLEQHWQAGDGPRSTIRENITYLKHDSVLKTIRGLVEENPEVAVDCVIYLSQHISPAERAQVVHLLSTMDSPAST
SMILES,IC50 (Acetyl-CoA carboxylase 2),IC50 (Acetyl-CoA carboxylase 1 [1]),logD [2],microsomal CLint [3],IC50 [6],IC50 (Acetyl-CoA carboxylase 1 [7]),Activity (Rattus norvegicus [4]),Activity (Rattus norvegicus [5])
CCNC(=O)Nc1sc2ccccc2c1C(=O)N1CCC(N2CCCC3(C2)C(=O)N(C)N(C)C3=O)CC1,20 nM,120 nM,2.03,12 µL/min/mg,–,–,–,–
CNC(=O)Nc1sc2ccccc2c1C(=O)N1CCC(N2CCCC3(C2)C(=O)N2CCCCN2C3=O)CC1,36 nM,200 nM,2.14,12 µL/min/mg,–,–,–,–
CNC(=O)Nc1sc2ccccc2c1C(=O)N1CCC(N2CCCC3(C2)C(=O)N2CCCCCN2C3=O)CC1,8.7 nM,48 nM,2.14,71 µL/min/mg,–,–,–,–
CCNC(=O)Nc1sc2ccccc2c1C(=O)N1CCC(N2CCCC3(C2)C(=O)N2CCCCN2C3=O)CC1,23 nM,130 nM,2.45,18 µL/min/mg,–,–,–,–
CCNC(=O)Nc1sc2ccccc2c1C(=O)N1CCC(N2CCCC3(C2)C(=O)N2CCCN2C3=O)CC1,33 nM,170 nM,1.93,25 µL/min/mg,–,–,–,–

# The next molecules have a lower IC50 (Acetyl-CoA carboxylase 2) than those just listed; values first:
IC50 (Acetyl-CoA carboxylase 2),IC50 (Acetyl-CoA carboxylase 1 [1]),logD [2],microsomal CLint [3],IC50 [6],IC50 (Acetyl-CoA carboxylase 1 [7]),SMILES,Activity (Rattus norvegicus [4]),Activity (Rattus norvegicus [5])
8.1 nM,41 nM,2.33,120 µL/min/mg,–,–,CCN1C(=O)C2(CCCN(C3CCN(C(=O)c4c(NC(=O)NC)sc5ccccc45)CC3)C2)C(=O)N1CC,–,–
7.5 nM,43 nM,2.48,100 µL/min/mg,–,–,CCNC(=O)Nc1sc2ccccc2c1C(=O)N1CCC(N2CCCC3(C2)C(=O)N2CCCCCN2C3=O)CC1,–,–
6.1 nM,25 nM,2.08,6 µL/min/mg,–,–,CNC(=O)Nc1sc2c(OC)cccc2c1C(=O)N1CCC(N2CCCC3(C2)C(=O)N2CCCCN2C3=O)CC1,–,–
5.9 nM,22 nM,1.76,15 µL/min/mg,–,–,COc1cccc2c(C(=O)N3CCC(N4CCCC5(C4)C(=O)N4CCCCN4C5=O)CC3)c(NC(N)=O)sc12,–,–
5.1 nM,22 nM,2.73,200 µL/min/mg,–,–,CCNC(=O)Nc1sc2ccccc2c1C(=O)N1CCC(N2CCCC3(C2)C(=O)N2CCCCCCN2C3=O)CC1,–,–
4.9 nM,21 nM,2.33,35 µL/min/mg,13 nM,28 nM,CCNC(=O)Nc1sc2c(OC)cccc2c1C(=O)N1CCC(N2CCCC3(C2)C(=O)N2CCCCN2C3=O)CC1,Active,Dose-dependent effect

# — ChEMBL document CHEMBL2057206, “Symmetrical approach of spiro-pyrazolidinediones as acetyl-CoA carboxylase inhibitors” (Bioorg Med Chem Lett, 2012)
